Experimental data from patent publication US20240409585A1, “MACROCYCLIC IMMUNOMODULATORS” (priority 2021, published 2024).
Numbered stars: 1 amine (or outer) side, 2 acyl side, 3 side chain; on linkers, the order of the positions; unused ones are H or OH. Bridge positions count the residues as written; N and C are the ends. Square brackets hold non-standard residues; d marks the D form. Peptide text beside a SMILES is read from it. * marks the point of attachment. ξ: configuration not given here. Gly(1-amidinopiperidin-4-yl) = N=C(N)N1CCC([C@H](N)C(=O)O)CC1; X29 = O=C([C@H](Cc1ccc(-c2cc(F)cc(F)c2)cc1)N[*:1])[*:2]; Phe(3-CF3) = N[C@@H](Cc1cccc(C(F)(F)F)c1)C(=O)O; Ala(morpholin-4-yl) = N[C@@H](CN1CCOCC1)C(=O)O; Phe(4-COOH) = N[C@@H](Cc1ccc(C(=O)O)cc1)C(=O)O; Asp(3,3-Me2) = CC(C)(C(=O)O)[C@H](N)C(=O)O; dPhe(2,4-F2) = N[C@H](Cc1ccc(F)cc1F)C(=O)O; Bip = N[C@@H](Cc1ccc(-c2ccccc2)cc1)C(=O)O; Phe(4-CN) = N#Cc1ccc(C[C@H](N)C(=O)O)cc1; Phe(3-Me) = Cc1cccc(C[C@H](N)C(=O)O)c1; Val(3-OH) = CC(C)(O)[C@H](N)C(=O)O; Cha = N[C@@H](CC1CCCCC1)C(=O)O; Cit = NC(=O)NCCC[C@H](N)C(=O)O; Ile(3ξ) = CCC(C)[C@H](N)C(=O)O; Thr(3ξ) = CC(O)[C@H](N)C(=O)O; NMeNle = CCCC[C@H](NC)C(=O)O; Carboxymethyl = O=C(O)C*; NMeA = CN[C@@H](C)C(=O)O; Orn = NCCC[C@H](N)C(=O)O; Dab = NCC[C@H](N)C(=O)O; Dap = NC[C@H](N)C(=O)O

target: T1, PE-labeled human PD-L1-Ig binding to Jurkat cell line over-expressing human PD-1 (Jurkat-PD-1) (Homo sapiens, UniProt Q15116); assay: Jurkat-PD-1 Cell Binding High-Content Screening Assay (CBA): Method 1; conditions: Jurkat HPDL1 PD1 IC50 (Method 1), cells printed in nM
T1 construct: expressed in transfected cells; host or cells: Jurkat
T1 sequence (Q15116 25-288): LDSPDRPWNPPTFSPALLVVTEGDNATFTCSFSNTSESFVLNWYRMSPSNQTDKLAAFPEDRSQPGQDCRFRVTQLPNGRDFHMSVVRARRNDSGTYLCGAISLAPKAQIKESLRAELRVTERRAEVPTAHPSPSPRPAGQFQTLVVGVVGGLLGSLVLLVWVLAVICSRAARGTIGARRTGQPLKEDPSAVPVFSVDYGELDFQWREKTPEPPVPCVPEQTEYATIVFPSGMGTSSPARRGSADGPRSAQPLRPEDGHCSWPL

SMILES	IC50 [nM]
CC(C)C[C@H]1NC(=O)[C@H](C)N(C)C(=O)[C@H](Cc2ccc(C(=O)O)cc2)NC(=O)[C@H](Cc2ccc(-c3ccccc3)cc2)NC(=O)[C@H](Cc2ccc(C(=O)O)cc2)NC(=O)[C@H](Cc2cccc(C(F)(F)F)c2)NC(=O)[C@H](CC(=O)O)NC(=O)[C@H](Cc2ccc(C(=O)O)cc2)NC(=O)[C@H](CN2CCOCC2)NC(=O)CSC[C@@H](C(=O)N[C@@H](CCN)C(N)=O)NC(=O)[C@H](CCC(=O)O)NC(=O)[C@H](C(C)C)NC(=O)[C@H](CC2CCCCC2)NC(=O)[C@H](CCN)NC1=O [Example 2268] ({CH2CO}-[Ala(morpholin-4-yl)][Phe(4-COOH)]D[Phe(3-CF3)][Phe(4-COOH)][Bip][Phe(4-COOH)][NMeA][dL][Dab][Cha]VEC[Dab]-NH2; thioether N-14)	1.3

same assay, conditions: Jurkat-hPD-1 cells, PE-labeled PD-L1-Ig 20 nM final; read-out: Jurkat HPDL1 PD1 IC50 (uM) (Method 1)

SMILES	IC50 [nM]
CC(C)C[C@@H]1NC(=O)[C@H](CCCNC(=N)N)NC(=O)[C@@H](Cc2ccccc2)NC(=O)[C@H](C)N(C)C(=O)[C@H](CCCNC(=N)N)NC(=O)[C@H](Cc2ccc(-c3ccccc3)cc2)NC(=O)[C@H](C(C)C)NC(=O)[C@H](Cc2c[nH]c3ccccc23)NC(=O)[C@H](CC(=O)O)NC(=O)[C@H](Cc2ccc(O)cc2)NC(=O)[C@H](CCC(N)=O)NC(=O)CSC[C@@H](C(=O)NCC(N)=O)NC(=O)[C@H](CO)NC(=O)[C@H](C(C)C)NC1=O [Compound 1023] ({CH2CO}-QYDWV[Bip]R[NMeA][dF]RLVSCG-NH2; thioether N-14)	140
CC(C)C[C@@H]1NC(=O)[C@H](Cc2c[nH]c3ccccc23)NC(=O)[C@H](CC(=O)O)NC(=O)[C@H](Cc2ccc(C#N)cc2)NC(=O)[C@H](Cc2ccccc2)NC(=O)CSC[C@@H](C(=O)N[C@@H](C)C(N)=O)NC(=O)[C@H](CO)NC(=O)[C@H](C(C)C)NC(=O)[C@H](CC(C)C)NC(=O)[C@H](CC(N)=O)NC(=O)[C@@H](C)NC(=O)[C@H](C)N(C)C(=O)[C@H](C(C)C)NC(=O)[C@H](Cc2ccc(-c3ccccc3)cc2)NC1=O [Compound 1726] ({CH2CO}-F[Phe(4-CN)]DWL[Bip]V[NMeA][dA]NLVSCA-NH2; thioether N-14)	10
CCC(C)[C@@H]1NC(=O)[C@H](Cc2ccc(-c3ccccc3)cc2)NC(=O)[C@H](CC(C)C)NC(=O)[C@H](Cc2c[nH]c3ccccc23)NC(=O)[C@H](CC(=O)O)NC(=O)[C@H](Cc2ccc(C(=O)O)cc2)NC(=O)[C@H](Cc2ccc(OCC(=O)O)cc2)NC(=O)CSC[C@@H](C(=O)N[C@@H](CC(N)=O)C(N)=O)NC(=O)[C@H](CCC(=O)O)NC(=O)[C@H](C(C)C)NC(=O)[C@H](CC2CCCCC2)NC(=O)[C@H](CCN)NC(=O)[C@@H](CC(C)C)NC(=O)[C@H](C)N(C)C1=O (stereo partly drawn) [Compound 1921] ({CH2CO}-Y(Carboxymethyl)[Phe(4-COOH)]DWL[Bip][Ile(3ξ)][NMeA][dL][Dab][Cha]VECN-NH2; thioether N-14)	10
CC(C)C[C@@H]1NC(=O)[C@H](CCCNC(=N)N)NC(=O)[C@@H](Cc2ccc(F)cc2F)NC(=O)[C@H](C)N(C)C(=O)[C@H](CCCNC(=N)N)NC(=O)[C@H](Cc2ccc(-c3ccccc3)cc2)NC(=O)[C@H](C(C)C)NC(=O)[C@H](Cc2c[nH]c3ccccc23)NC(=O)[C@H](CC(=O)O)NC(=O)[C@H](Cc2ccc(O)cc2)NC(=O)[C@H](Cc2ccccc2)NC(=O)CSC[C@@H](C(=O)N[C@@H](C)C(N)=O)NC(=O)[C@H]([C@@H](C)O)NC(=O)[C@H](C(C)C)NC1=O [Compound 1073] ({CH2CO}-FYDWV[Bip]R[NMeA][dPhe(2,4-F2)]RLVTCA-NH2; thioether N-14)	130
Cc1cccc(C[C@@H]2NC(=O)[C@H](CC(=O)O)NC(=O)[C@H](Cc3ccc(OCC(=O)O)cc3)NC(=O)[C@H](CN)NC(=O)CSC[C@@H](C(=O)N[C@@H](CCN)C(N)=O)NC(=O)[C@H](CCCN)NC(=O)[C@H](C(C)C)NC(=O)[C@H](CC3CCCCC3)NC(=O)[C@H](CCN)NC(=O)[C@@H](C)NC(=O)[C@H](C)N(C)C(=O)[C@H](Cc3ccc(O)cc3)NC(=O)[C@H](Cc3ccc(-c4ccccc4)cc3)NC(=O)[C@H](Cc3ccc(O)cc3)NC2=O)c1 [Compound 1875] ({CH2CO}-[Dap]Y(Carboxymethyl)D[Phe(3-Me)]Y[Bip]Y[NMeA][dA][Dab][Cha]V[Orn]C[Dab]-NH2; thioether N-14)	50
CC(C)C[C@@H]1NC(=O)[C@H](CCN)NC(=O)[C@@H](CC(C)C)NC(=O)[C@H](C)N(C)C(=O)[C@H](CCC(=O)O)NC(=O)[C@H](Cc2ccc(-c3ccccc3)cc2)NC(=O)[C@H](C(C)C)NC(=O)[C@H](Cc2c[nH]c3ccccc23)NC(=O)[C@H](CC(=O)O)NC(=O)[C@H](Cc2ccc(O)cc2)NC(=O)[C@H](CC(N)=O)NC(=O)CSC[C@@H](C(=O)N[C@@H](C)C(N)=O)NC(=O)[C@H]([C@@H](C)O)NC(=O)[C@H](C(C)C)NC1=O [Compound 1255] ({CH2CO}-NYDWV[Bip]E[NMeA][dL][Dab]LVTCA-NH2; thioether N-14)	30
CC(C)C[C@@H]1NC(=O)[C@H](CCN)NC(=O)[C@@H](CC(C)C)NC(=O)[C@H](C)N(C)C(=O)[C@H](Cc2cnc[nH]2)NC(=O)[C@H](Cc2ccc(-c3ccccc3)cc2)NC(=O)[C@H](C(C)C)NC(=O)[C@H](Cc2c[nH]c3ccccc23)NC(=O)[C@H](CC(=O)O)NC(=O)[C@H](Cc2ccc(C#N)cc2)NC(=O)[C@H](CN)NC(=O)CSC[C@@H](C(=O)N[C@@H](C)C(N)=O)NC(=O)[C@H]([C@@H](C)O)NC(=O)[C@H](C(C)C)NC1=O [Compound 1433] ({CH2CO}-[Dap][Phe(4-CN)]DWV[Bip]H[NMeA][dL][Dab]LVTCA-NH2; thioether N-14)	160
CC[C@H](C)[C@@H]1NC(=O)[C@H](Cc2ccc(-c3ccccc3)cc2)NC(=O)[C@H](C(C)C)NC(=O)[C@H](Cc2c[nH]c3ccccc23)NC(=O)[C@H](CC(=O)O)NC(=O)[C@H](Cc2ccc(O)cc2)NC(=O)[C@H](CN)NC(=O)CSC[C@@H](C(=O)N[C@@H](C)C(N)=O)NC(=O)[C@H]([C@@H](C)O)NC(=O)[C@H](C(C)C)NC(=O)[C@H](CC2CCCCC2)NC(=O)[C@H](CCCNC(=N)N)NC(=O)[C@@H](CC(C)C)NC(=O)[C@H](C)N(C)C1=O [Compound 1492] ({CH2CO}-[Dap]YDWV[Bip]I[NMeA][dL]R[Cha]VTCA-NH2; thioether N-14)	40
CC(C)C[C@@H]1NC(=O)[C@H](CCCNC(=N)N)NC(=O)[C@@H](CC(C)C)NC(=O)[C@H](C)N(C)C(=O)[C@H](CCCNC(=N)N)NC(=O)[C@H](Cc2ccc(-c3cc(F)cc(F)c3)cc2)NC(=O)[C@H](C(C)C)NC(=O)[C@H](Cc2c[nH]c3ccccc23)NC(=O)[C@H](CC(=O)O)NC(=O)[C@H](Cc2ccc(O)cc2)NC(=O)[C@H](Cc2ccccc2)NC(=O)CSC[C@@H](C(=O)N[C@@H](C)C(N)=O)NC(=O)[C@H]([C@@H](C)O)NC(=O)[C@H](C(C)C)NC1=O [Compound 1068] ({CH2CO}-FYDWV[X29]R[NMeA][dL]RLVTCA-NH2; thioether N-14)	170
CC(C)C[C@@H]1NC(=O)[C@H](CCCNC(=N)N)NC(=O)[C@@H](CC(C)C)NC(=O)[C@H](C)N(C)C(=O)[C@H](CCCN)NC(=O)[C@H](Cc2ccc(-c3ccccc3)cc2)NC(=O)[C@H](C(C)C)NC(=O)[C@H](Cc2c[nH]c3ccccc23)NC(=O)[C@H](CC(=O)O)NC(=O)[C@H](Cc2ccc(O)cc2)NC(=O)[C@H](CC(N)=O)NC(=O)CSC[C@@H](C(=O)N[C@@H](C)C(N)=O)NC(=O)[C@H]([C@@H](C)O)NC(=O)[C@H](C(C)C)NC1=O [Compound 1288] ({CH2CO}-NYDWV[Bip][Orn][NMeA][dL]RLVTCA-NH2; thioether N-14)	80
CCCC[C@H]1C(=O)N[C@@H](Cc2ccc(C(=O)O)cc2)C(=O)N[C@@H](CC(=O)O)C(=O)N[C@@H](Cc2cccc(C)c2)C(=O)N[C@@H](Cc2ccc(C(=O)O)cc2)C(=O)N[C@@H](Cc2ccc(-c3ccccc3)cc2)C(=O)N[C@@H](Cc2ccc(C(=O)O)cc2)C(=O)N(C)[C@@H](C)C(=O)N[C@H](CC(C)C)C(=O)N[C@@H](CCN)C(=O)N[C@@H](CC2CCCCC2)C(=O)N[C@@H](C(C)(C)O)C(=O)N[C@@H](CO)C(=O)N[C@H](C(=O)N[C@@H](CCN)C(N)=O)CSCC(=O)N1C [Compound 2205] ({CH2CO}-[NMeNle][Phe(4-COOH)]D[Phe(3-Me)][Phe(4-COOH)][Bip][Phe(4-COOH)][NMeA][dL][Dab][Cha][Val(3-OH)]SC[Dab]-NH2; thioether N-14)	60
Cc1cccc(C[C@@H]2NC(=O)[C@H](CC(=O)O)NC(=O)[C@H](Cc3ccc(OCC(=O)O)cc3)NC(=O)[C@H](CCN)NC(=O)CSC[C@@H](C(=O)N[C@@H](CCN)C(N)=O)NC(=O)[C@H](CO)NC(=O)[C@H](C(C)(C)O)NC(=O)[C@H](CC3CCCCC3)NC(=O)[C@H](CCN)NC(=O)[C@@H](CC(C)C)NC(=O)[C@H](C)N(C)C(=O)[C@H](C(C)(C)C(=O)O)NC(=O)[C@H](Cc3ccc(-c4ccccc4)cc3)NC(=O)[C@H](Cc3ccc(OCC(=O)O)cc3)NC2=O)c1 [Compound 1846] ({CH2CO}-[Dab]Y(Carboxymethyl)D[Phe(3-Me)]Y(Carboxymethyl)[Bip][Asp(3,3-Me2)][NMeA][dL][Dab][Cha][Val(3-OH)]SC[Dab]-NH2; thioether N-14)	20
CC(C)C[C@@H]1NC(=O)[C@H](CCN)NC(=O)[C@@H](CC(C)C)NC(=O)[C@H](C)N(C)C(=O)[C@H](CC(C)C)NC(=O)[C@H](Cc2ccc(-c3ccccc3)cc2)NC(=O)[C@H](C(C)C)NC(=O)[C@H](Cc2c[nH]c3ccccc23)NC(=O)[C@H](CC(=O)O)NC(=O)[C@H](Cc2ccc(O)cc2)NC(=O)[C@H](CC(N)=O)NC(=O)CSC[C@@H](C(=O)N[C@@H](C)C(N)=O)NC(=O)[C@H]([C@@H](C)O)NC(=O)[C@H](C(C)C)NC1=O [Compound 1270] ({CH2CO}-NYDWV[Bip]L[NMeA][dL][Dab]LVTCA-NH2; thioether N-14)	110
CC(C)C[C@@H]1NC(=O)[C@H](CCN)NC(=O)[C@@H](CC(C)C)NC(=O)[C@H](C)N(C)C(=O)[C@H](CCCNC(N)=O)NC(=O)[C@H](Cc2ccc(-c3ccccc3)cc2)NC(=O)[C@H](C(C)C)NC(=O)[C@H](Cc2c[nH]c3ccccc23)NC(=O)[C@H](CC(=O)O)NC(=O)[C@H](Cc2ccc(O)cc2)NC(=O)[C@H](C2CCN(C(=N)N)CC2)NC(=O)CSC[C@@H](C(=O)N[C@@H](C)C(N)=O)NC(=O)[C@H](C(C)O)NC(=O)[C@H](C(C)C)NC1=O (stereo partly drawn) [Compound 2038] ({CH2CO}-[Gly(1-amidinopiperidin-4-yl)]YDWV[Bip][Cit][NMeA][dL][Dab]LV[Thr(3ξ)]CA-NH2; thioether N-14)	70
